Results on four molecules are retold here after paper PMC9979976 (Acta Crystallographica. Section F, Structural Biology …, 2023).

Series [1] concerns the target T1, CATIII (chloramphenicol acetyltransferase III; CATIII+GG) (Escherichia coli, UniProt P00484).
T1 construct: gene cat3; synthetic gene, full length without Met1; expressed in E. coli BL21(DE3); trimer
As to the kind of experiment: X-ray crystal structure, […] A. The class given is binding.

Series [2] concerns the molecule itself. As to the kind of experiment: crystal structure; CATIII+GG at 24 mg/ml co-crystallised with 10 mM partially hydrolysed AcOCoA and saturating chloramphenicol; hanging drop, 46% PEG 400, 100 mM MgCl2, 0.1 M sodium citrate pH 5.5; space group P4(2)2(1)2, 1.68 A.

In the case of `CC(=O)OCCNC(=O)CCNC(=O)[C@H](O)C(C)(C)COP(=O)(O)OP(=O)(O)OC[C@H]1O[C@@H](n2cnc3c(N)ncnc32)[C@H](O)[C@@H]1OP(=O)(O)O` [AcOCoA, acetyl-oxa(dethia)CoA], the “X-ray crystal structure, 1.68 A” value in series [1] (co-crystallized with 10 mM AcOCoA (partly hydrolysed) and saturated chloramphenicol, pH 5.5, 298 K, active site, clearest in chain A, unreactive substrate analog) is given as “In monomer A we can clearly model the position of the acetyl group”.

In the case of `CC(C)(COP(=O)(O)OP(=O)(O)OC[C@H]1O[C@@H](n2cnc3c(N)ncnc32)[C@H](O)[C@@H]1OP(=O)(O)O)[C@@H](O)C(=O)NCCC(=O)NCCO` [OCoA, oxa(dethia)CoA], the “X-ray crystal structure, 1.68 A” value in series [1] (minor species (about 20% in monomer A) mixed with AcOCoA, with chloramphenicol, pH 5.5, active site) was “Our structures here reveal a mixture of bound AcOCoA and OCoA”.

`O=C(N[C@H](CO)[C@H](O)c1ccc([N+](=O)[O-])cc1)C(Cl)Cl` [chloramphenicol]: the “X-ray crystal structure, 1.68 A” value in series [1] (co-crystallized at saturation with AcOCoA/OCoA, pH 5.5, 298 K, active site of each monomer) was “Our CATIII structure has clear electron density for chloramphenicol in each monomer”.

B1: Chloramphenicol acetyltransferase III (enzyme)
chain: SGGNYTKFDVKNWVRREHFEFYRHRLPCGFSLTSKIDITTLKKSLDDSAYKFYPVMIYLIAQAVNQFDELRMAIKDDELIVWDSVDPQFTVFHQETETFSALSCPYSSDIDQFMVNYLSVMERYKSDTKLFPQGVTPENHLNISALPWVNFDSFNLNVANFTDYFAPIITMAKYQQEGDRLLLPLSVQVHHAVCDGFHVARFINRLQELCNSKLK
notes: cloning artifact left after TEV cleavage (Ser-Gly-Gly before Asn2); two Zn2+ modelled at contacts between trimers; also called CATIII; CATIII+GG; source: E. coli BL21(DE3), purified (HisTrap HP, TEV cleavage, second HisTrap HP); not shown: His6, N-terminal, cleaved
Broadly, the stoichiometry N is the number of molecules, sites or subunits per partner or assembly. In the case of B1, the “stoichiometry N” value in series [2] was determined as 3.
